Assays:
ER = target: T1, ER (Homo sapiens, UniProt P03372); experiment: ER-mediated transactivation, ERE-driven Luciferase reporter stable cell line (MCF-7-Luc); assay type: cell-based; conditions: for ER T.A. (transcriptional activity): trans-stilbenes; for ER TA (transcriptional activity): cis-stilbenes
T1 construct: stably transfecting MCF-7 cells with the ERE-globin-tk-luc-SV-Neo plasmid; endogenous in cells; host or cells: MCF-7-Luc (MCF-7 stably transfected with ERE-globin-tk-luc-SV-Neo)
T1 sequence (P03372 1-595): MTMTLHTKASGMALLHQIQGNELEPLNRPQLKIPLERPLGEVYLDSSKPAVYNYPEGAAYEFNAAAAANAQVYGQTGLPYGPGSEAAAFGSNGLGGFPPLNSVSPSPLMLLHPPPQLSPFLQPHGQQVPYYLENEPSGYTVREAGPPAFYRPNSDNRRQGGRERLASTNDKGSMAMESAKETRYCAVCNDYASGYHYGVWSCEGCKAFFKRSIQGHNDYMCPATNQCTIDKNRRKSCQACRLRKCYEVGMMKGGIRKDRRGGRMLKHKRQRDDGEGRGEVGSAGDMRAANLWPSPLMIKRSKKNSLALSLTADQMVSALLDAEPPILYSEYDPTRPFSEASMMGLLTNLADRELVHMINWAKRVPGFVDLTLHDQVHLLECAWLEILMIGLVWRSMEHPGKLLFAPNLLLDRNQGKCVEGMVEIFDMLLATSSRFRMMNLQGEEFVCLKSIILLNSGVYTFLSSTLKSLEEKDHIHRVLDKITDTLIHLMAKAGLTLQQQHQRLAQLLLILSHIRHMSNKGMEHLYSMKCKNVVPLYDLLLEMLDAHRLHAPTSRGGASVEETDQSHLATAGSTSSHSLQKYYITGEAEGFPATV
Protocol: The human adenocarcinoma breast cell line MCF-7 was obtained from the American Tissue Culture Collection (Rockville, USA). The cells were established by stably transfecting MCF-7 cells with the ERE-globin-tk-luc-SV-Neo plasmid and thus expressed luciferase in an estrogen dependent manner MCF-7-Luc. […] Cells were incubated at 37° C. in a humidified 5% CO2 incubator. For experiments, cells were grown for 5 days in phenol red-free medium, containing 5% dextran-coated charcoal treated FCS (DCC-FCS). Medium was changed after 2 days. At day 5, cells were treated or not with compounds. Compounds were dissolved in ethanol.
For each condition, 15.103 cells were seeded per well in 12-well plates and treated, as described above, during 16 hours in a final volume of 0.5 mL. At the end of the treatment, cells were washed with PBS and lysed in 150 μl of lysis buffer (Promega, Charbonnieres, France). Luciferase activity was measured using the luciferase assay reagent (Promega), according to the manufacturer's instructions. Protein concentrations were measured using Bradford technique, to normalize the luciferase activity data. For each condition, average luciferase activity was calculated from the data of 3 independent wells.

AhR = target: T2, AhR (Homo sapiens, UniProt P35869); experiment: AhR-mediated transactivation, DRE-TK-CAT stable cell line 47DRE treated with TCDD; assay type: cell-based; set-up: endogenous in cells; key to AhR T.A. (transcriptional activity): Ago: agonist; N.M.: not measurable; conditions: DRE-TKCAT reporter; for AhR T.A. (transcriptional activity): trans-stilbenes, 10^−9 M TCDD challenged by 10^−7 M compound; for AhR TA (transcriptional activity): cis-stilbenes, 10^−9 M TCDD challenged by 10−7 M compound
T2 sequence (P35869 11-848): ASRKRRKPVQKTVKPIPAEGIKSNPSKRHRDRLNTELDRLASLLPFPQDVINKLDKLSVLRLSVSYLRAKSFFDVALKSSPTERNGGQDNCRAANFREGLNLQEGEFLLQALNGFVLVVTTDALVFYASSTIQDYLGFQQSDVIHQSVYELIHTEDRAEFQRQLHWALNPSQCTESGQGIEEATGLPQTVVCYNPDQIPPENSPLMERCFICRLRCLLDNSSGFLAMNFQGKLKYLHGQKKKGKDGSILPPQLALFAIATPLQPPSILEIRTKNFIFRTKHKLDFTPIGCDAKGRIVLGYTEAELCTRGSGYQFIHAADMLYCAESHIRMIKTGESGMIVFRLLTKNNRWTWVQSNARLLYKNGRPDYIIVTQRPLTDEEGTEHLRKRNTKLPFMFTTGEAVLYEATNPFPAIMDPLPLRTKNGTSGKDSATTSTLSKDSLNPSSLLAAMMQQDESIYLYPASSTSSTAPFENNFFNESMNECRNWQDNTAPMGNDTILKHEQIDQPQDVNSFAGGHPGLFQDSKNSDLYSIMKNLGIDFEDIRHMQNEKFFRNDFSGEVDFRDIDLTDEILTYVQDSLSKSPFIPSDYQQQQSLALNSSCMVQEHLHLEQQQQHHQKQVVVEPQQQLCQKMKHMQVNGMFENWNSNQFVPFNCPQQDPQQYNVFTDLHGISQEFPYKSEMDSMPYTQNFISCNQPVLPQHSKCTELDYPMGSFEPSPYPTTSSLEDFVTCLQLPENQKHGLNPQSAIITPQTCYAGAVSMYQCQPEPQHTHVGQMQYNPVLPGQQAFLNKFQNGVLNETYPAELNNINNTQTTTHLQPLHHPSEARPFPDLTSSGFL
Protocol: Cis and Trans isomers were then tested for transcriptional modulatory activity in a DRE-TK-CAT containing stable cell line treated with TCDD.
mp° C.: melting point. Ago: agonist. N.M.: not measurable. RBA: relative binding affinity of the compound for the given receptor (AhR or ER).
The stable cell line 47DRE bearing the TCDD-responsive CAT construct was previously described (3). It was routinely grown in DMEM medium supplemented with 10% fetal calf serum (FCS), 4.5 g/L glucose, and 0.6 units/ml (10^−6 M) insulin. Unless stated otherwise, cells were established 24 hours before any experiment in a modified medium (stripped condition) containing 5% Dextran-charcoal-treated newbom calf serum instead of 10% FCS. All other components remained unchanged. […] All chemicals applied to the cells were diluted in ethanol, control cells received ethanol alone. CAT expression was assayed on whole cell extracts (100 μg protein) with a CAT-ELISA assay (Roche, Meylan, France) according to supplier's specifications. Experiments were done in triplicate.

Row | SMILES | ER T.A. (transcriptional activity) (ER) | AhR T.A. (transcriptional activity) (AhR) | ER TA (transcriptional activity) (ER) | AhR TA (transcriptional activity) (AhR)
1 | Clc1ccc(/C=C/c2cc(Cl)cc(Cl)c2)cc1 [Compound 4b, (E)-1-(4-chlorophenyl)-2-(3,5-dichlorophenyl)-ethene] | N.M | Ant | – | –
2 | COc1ccc(/C=C/c2cc(F)cc(F)c2)cc1 [Compound 4c, (E)-1-(4-methoxyphenyl)-2-(3,5-difluorophenyl)-ethene] | N.M | Ant | – | –
3 | COc1cc(/C=C/c2ccc(F)cc2)cc(OC)c1 [Compound 4f, (E)-1-(4-fluorophenyl)-2-(3,5-dimethoxyphenyl)-ethene] | N.M | Ant | – | –
4 | Fc1ccc(/C=C\c2cc(F)cc(F)c2)cc1 [Compound 5d, (Z)-1-(4-fluorophenyl)-2-(3,5-difluorophenyl)-ethene] | – | – | N.M | Ant
5 | FC(F)(F)c1ccc(/C=C/c2cc(Cl)cc(Cl)c2)cc1 [Compound 4i, (E)-1-(4-trifluoromethylphenyl)-2-(3,5-dichlorophenyl)-ethene] | N.M. | Ago | – | –
6 | CCOc1ccc(/C=C\c2cc(OC)cc(OC)c2)cc1 [Compound 5g, (Z)-1-(4-ethoxyphenyl)-2-(3,5-dimethoxyphenyl)-ethene] | – | – | N.M | Ant
7 | Clc1ccc(/C=C\c2cc(Cl)cc(Cl)c2)cc1 [Compound 5b, (Z)-1-(4-chlorophenyl)-2-(3,5-dichlorophenyl)-ethene] | – | – | N.M | Ant
8 | FC(F)(F)c1ccc(/C=C/c2cc(C(F)(F)F)cc(C(F)(F)F)c2)cc1 [Compound 4e, (E)-1-(4-trifluoromethylphenyl)-2-(3,5-ditrifluoromethylphenyl)-ethene] | N.M | Ant | – | –
9 | COc1cc(/C=C\c2ccc(F)cc2)cc(OC)c1 [Compound 5f, (Z)-1-(4-fluorophenyl)-2-(3,5-dimethoxyphenyl)-ethene] | – | – | N.M | Ant
10 | COc1ccc(/C=C\c2cc(OC)cc(OC)c2)cc1 [Compound 5a, (Z)-1-(4-methoxyphenyl)-2-(3,5-dimethoxyphenyl)-ethene] | – | – | Ago | Ant
11 | CCCCOc1ccc(/C=C/c2cc(OC)cc(OC)c2)cc1 [Compound 4h, (E)-1-(4-butoxyphenyl)-2-(3,5-dimethoxyphenyl)-ethene] | N.M. | Ant | – | –
12 | COc1ccc(/C=C\c2cc(Cl)cc(Cl)c2)cc1 [Compound 5j, (Z)-1-(4-methoxyphenyl)-2-(3,5-dichlorophenyl)-ethene] | – | – | N.M | Ant
13 | Fc1ccc(/C=C/c2cc(F)cc(F)c2)cc1 [Compound 4d, (E)-1-(4-fluorophenyl)-2-(3,5-difluorophenyl)-ethene] | N.M | Ant | – | –
14 | FC(F)(F)c1ccc(/C=C\c2cc(C(F)(F)F)cc(C(F)(F)F)c2)cc1 [Compound 5e, (Z)-1-(4-trifluoromethylphenyl)-2-(3,5-ditrifluoromethylphenyl)-ethene] | – | – | N.M | Ant
15 | CCCCOc1ccc(/C=C\c2cc(OC)cc(OC)c2)cc1 [Compound 5h, (Z)-1-(4-butoxyphenyl)-2-(3,5-dimethoxyphenyl)-ethene] | – | – | N.M | Ant
16 | CCOc1ccc(/C=C/c2cc(OC)cc(OC)c2)cc1 [Compound 4g, (E)-1-(4-ethoxyphenyl)-2-(3,5-dimethoxyphenyl)-ethene] | N.M. | Ant | – | –
17 | COc1ccc(/C=C/c2cc(OC)cc(OC)c2)cc1 [Compound 4a, (E)-1-(4-methoxyphenyl)-2-(3,5-dimethoxyphenyl)-ethene] | Ago | Ant | – | –
18 | COc1ccc(/C=C\c2cc(F)cc(F)c2)cc1 [Compound 5c, (Z)-1-(4-methoxyphenyl)-2-(3,5-difluorophenyl)-ethene] | – | – | N.M | Ant
19 | FC(F)(F)c1ccc(/C=C\c2cc(Cl)cc(Cl)c2)cc1 [Compound 5i, (Z)-1-(4-trifluoromethylphenyl)-2-(3,5-dichlorophenyl)-ethene] | – | – | N.M | Ant
20 | COc1ccc(/C=C/c2cc(Cl)cc(Cl)c2)cc1 [Compound 4j, (E)-1-(4-methoxyphenyl)-2-(3,5-dichlorophenyl)-ethene] | N.M. | Ant | – | –

Source: patent publication US20040147788A1, “Stilbene derivatives and their use as aryl hydrocarbon receptor antagonistic ligands” (priority 2002, published 2004)
